The source of these data is US6191145A, “Orally-active nipecotamide glycolamide esters for the treatment of thrombosis disorders” (Ortho-McNeil Pharmaceutical, Inc., priority 1999, dated 2001).

Each structure is given as a SMILES string. Where a name gives a salt, the structure may show the parent alone. Some results are limits rather than exact numbers.

The target in experiment [1] is GPIIb/IIIa (Homo sapiens, UniProt P05106+P08514). The experiment can be described thus: In vitro solid phase purified glycoprotein IIb/IIIa binding assay (fibrinogen binding). Conditions: for inhibition at 50 µM: read-out: Fibrinogen Binding % Inh. (50 μM). As to the method: The plate is covered and incubated overnight at 4° C. The GPIIb/IIa solution is discarded and 150 μl of 5% BSA is added and incubated at RT for 1-3 h. The plate is washed extensively with modified Tyrodes buffer. Biotinylated fibrinogen (25 μl/well) at 2×final concentration is added to the wells that contain the test compounds (25 μl/well). The plate is covered and incubated at RT for 2-4 h. Twenty minutes prior to incubation completion, one drop of Reagent A (Vecta Stain ABC Horse Radish Peroxidase kit, Vector Laboratories, Inc.) and one drop Reagent B are added with mixing to 5 mL modified Tyrodes buffer mix and let stand. The ligand solution is discarded and the plate washed (5×200 μl/well) with modified Tyrodes buffer. Vecta Stain HRP-Biotin-Avidin reagent (50 μl/well, as prepared above) is added and incubated at RT for 15 min. The Vecta Stain solution is discarded and the wells washed (5×200 μl/well) with modified Tyrodes buffer. Developing buffer (10 mL of 50 mM citrate/phosphate buffer @ pH 5.3, 6 mg 2-phenylenediamine, 6 μl 30% H2 O2; 50 μl/well) is added and incubated at RT for 3-5 min, and then 2N H2 SO4 (50 μl/well) is added. The absorbance is read at 490 nm.
Chain of GPIIb/IIIa (P08514 32-887 limits assumed): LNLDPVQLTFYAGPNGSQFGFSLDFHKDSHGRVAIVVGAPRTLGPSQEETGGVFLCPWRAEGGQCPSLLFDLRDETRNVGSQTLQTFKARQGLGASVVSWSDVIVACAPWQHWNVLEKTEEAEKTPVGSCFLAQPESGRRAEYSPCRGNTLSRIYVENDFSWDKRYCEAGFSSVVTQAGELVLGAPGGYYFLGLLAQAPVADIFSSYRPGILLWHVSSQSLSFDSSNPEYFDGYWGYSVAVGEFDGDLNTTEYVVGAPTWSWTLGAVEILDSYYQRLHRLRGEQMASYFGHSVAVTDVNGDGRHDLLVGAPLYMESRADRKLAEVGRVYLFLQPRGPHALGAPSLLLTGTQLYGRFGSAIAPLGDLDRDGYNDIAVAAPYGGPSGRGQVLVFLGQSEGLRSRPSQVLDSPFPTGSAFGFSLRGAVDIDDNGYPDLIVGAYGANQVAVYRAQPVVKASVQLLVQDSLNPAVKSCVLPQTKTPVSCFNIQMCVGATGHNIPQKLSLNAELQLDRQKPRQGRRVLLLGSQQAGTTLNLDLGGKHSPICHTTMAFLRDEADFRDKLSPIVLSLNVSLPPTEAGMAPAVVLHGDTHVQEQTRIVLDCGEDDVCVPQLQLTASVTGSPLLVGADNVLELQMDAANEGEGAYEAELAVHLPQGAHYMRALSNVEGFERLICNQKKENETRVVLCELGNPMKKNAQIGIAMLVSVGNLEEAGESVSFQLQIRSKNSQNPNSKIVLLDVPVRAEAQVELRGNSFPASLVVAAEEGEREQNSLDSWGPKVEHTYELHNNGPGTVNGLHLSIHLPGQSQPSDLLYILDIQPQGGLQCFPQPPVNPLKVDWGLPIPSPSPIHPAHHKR
Chain of GPIIb/IIIa (P08514 891-1039 limits assumed): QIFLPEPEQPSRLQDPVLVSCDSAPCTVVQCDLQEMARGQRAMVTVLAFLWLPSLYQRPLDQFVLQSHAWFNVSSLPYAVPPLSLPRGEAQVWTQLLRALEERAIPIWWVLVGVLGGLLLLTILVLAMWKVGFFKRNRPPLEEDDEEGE
Chain of GPIIb/IIIa (P05106 27-788): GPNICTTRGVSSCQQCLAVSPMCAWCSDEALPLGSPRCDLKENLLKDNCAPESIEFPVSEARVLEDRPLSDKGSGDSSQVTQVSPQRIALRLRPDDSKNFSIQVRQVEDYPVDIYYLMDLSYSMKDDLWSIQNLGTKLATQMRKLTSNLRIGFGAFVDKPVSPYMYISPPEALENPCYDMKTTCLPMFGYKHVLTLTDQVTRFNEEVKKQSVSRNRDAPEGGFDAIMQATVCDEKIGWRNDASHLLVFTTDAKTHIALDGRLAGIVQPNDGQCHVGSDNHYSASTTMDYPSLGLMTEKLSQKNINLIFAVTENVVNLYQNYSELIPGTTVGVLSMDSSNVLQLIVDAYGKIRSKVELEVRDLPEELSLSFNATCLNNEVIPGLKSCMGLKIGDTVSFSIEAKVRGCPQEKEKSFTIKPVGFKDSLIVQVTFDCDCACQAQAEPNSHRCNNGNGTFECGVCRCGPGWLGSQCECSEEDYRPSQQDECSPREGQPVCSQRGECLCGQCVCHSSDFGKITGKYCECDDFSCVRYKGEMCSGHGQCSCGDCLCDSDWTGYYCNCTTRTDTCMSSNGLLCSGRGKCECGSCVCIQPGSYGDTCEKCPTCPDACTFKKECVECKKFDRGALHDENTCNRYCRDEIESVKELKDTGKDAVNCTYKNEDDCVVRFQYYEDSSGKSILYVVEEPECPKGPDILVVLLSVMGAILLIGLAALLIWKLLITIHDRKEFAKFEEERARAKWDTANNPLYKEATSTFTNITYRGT

Experiment [2] deals with Thrombin-induced aggregation of gel-filtered platelets. The experiment can be described thus: In vitro inhibition of thrombin-induced gel-filtered platelet aggregation. Conditions: Homo sapiens; for inhibition at 50 µM: read-out: Platelet Aggregation % Inh. (50 μM). In kind it is cell-based. The procedure: The percentage of platelet aggregation is calculated as an increase in light transmission of compound-treated platelet concentrate vs. control-treated platelet concentrate. Human blood is obtained from drug free, normal donors into tubes containing 0.13M sodium citrate. Platelet rich plasma (PRP) is collected by centrifugation of whole blood at 200×g for 10 min at 25° C. The PRP (5 mL) is gel filtered through Sepharose 2B (bed volume 50 mL), and the platelet count is adjusted to 2×10^7 platelets per sample. The following constituents are added to a siliconized cuvette: concentrated platelet filtrate and Tyrode's buffer (0.14M NaCl, 0.0027M KCl, 0.012M NaHCO3,0.76 mM Na2 HPO4, 0.0055M glucose, 2 mg/mL BSA and 5.0 mM HEPES @ pH 7.4) in an amount equal to 350 μl, 50 μl of 20 mM calcium and 50 μl of the test compound. Aggregation is monitored in a BIODATA aggregometer for the 3 min following the addition of agonist (thrombin 50 μl of 1 unit/mL).

In experiment [3] the test system is collagen-induced ex vivo platelet aggregation. The experiment can be described thus: Ex vivo dog study: duration of >50% inhibition of collagen-induced ex vivo platelet aggregation. It is filed as in vivo. As to the method:
Adult mongrel dogs (8-13 kg) were anesthetized with sodium pentobarbital (35 mg/kg, i.v.) and artificially respired. Arterial blood pressure and heart rate were measured using a Millar catheter-tip pressure transducer inserted in a femoral artery. Another Millar transducer was placed in the left ventricle (LV) via a carotid artery to measure LV end diastolic pressure and indices of myocardial contractility. A lead II electrocardiogram was recorded from limb electrodes. Catheters were placed in a femoral artery and vein to sample blood and infuse drugs, respectively. Responses were continuously monitored using a Modular Instruments data aquisition system.
Arterial blood samples (5-9 ml) were withdrawn into tubes containing 3.8% sodium citrate to prepare platelet rich plasma (PRP) and to determine effects on coagulation parameters: prothrombin time (PT) and activated partial thromboplastin time (APTT). Separate blood samples (1.5 ml) were withdrawn in EDTA to determine hematocrit and cell counts (platelets, RBC's and white cells). Template bleeding times were obtained from the buccal surface using a symplate incision devise and Whatman filter paper.
Aggregation of PRP was performed using a BioData aggregometer. Aggregation of whole blood used a Chronolog impedance aggregometer. PT and APTT were determined on either a BioData or ACL 3000+ coagulation analyser. Cells were counted with a Sysmex K-1000.
Compounds were solubilized in a small volume of dimethylformamide (DMF) and diluted with saline to a final concentration of 10% DMF. Compounds were administered by the intravenous route with a Harvard infusion pump. Doses was administered over a 15 min interval at a constant rate of 0.33 ml/min. Data were obtained after each dose and in 30 min intervals following the end of drug administration. Oral doses were administered as aqueous solutions via syringe.

The test system of experiment [4] is thrombin-induced platelet aggregation. Conditions: L. Alig, J. Med. Chem. 1992, 35, 4393; read-out: IC50 against in vitro thrombin-induced platelet aggregation; cited from earlier work.

For orientation: IC50 means the concentration that inhibits the measured activity by half. For the compound `CCN(CC)C(=O)COC(=O)C[C@H](NC(=O)[C@@H]1CCCN(C(=O)CCC2CCNCC2)C1)c1cccnc1` [Compound 1, N-3-(4-Piperidinepropionyl)-R-(-)-nipecotyl-[(S)-3-amino-3-(3-pyridyl)]propionic acid 2-(Diethylamino)-2-oxoethyl ester.2HCl], in experiment [1], the IC50 was 0.0007 µM and the inhibition at 50 µM was 100%. In experiment [2], 0.14 µM corresponded to half-maximal inhibition (IC50) and the inhibition at 50 µM stood at 100%. Besides, in experiment [3] (0.3 mpk), the “Duration of >50% inhibition of collagen-induced ex vivo platelet aggregation, intravenous dosing” value (from here on “Duration of >50% inhibition … intravenous dosing”) is given as 60 min. Besides, the “Duration of >50% inhibition of collagen-induced ex vivo platelet aggregation, oral dosing” value (“Duration of >50% inhibition … oral dosing” below) in experiment [3] (3 mpk) was more than 180 min.

For the compound `CCN(CC)C(=O)COC(=O)C[C@H](NC(=O)[C@@H]1CCCN(C(=O)CCC2CCNCC2)C1)c1ccc2c(c1)OCO2` [Compound 2], in experiment [1], the 50% inhibitory concentration (IC50) is 0.005 µM and the inhibition at 50 µM was determined as 100%. Further, in experiment [2], inhibition was half-maximal at 1.1 µM (IC50) and the inhibition at 50 µM amounted to 100%. For the same compound, in experiment [3] (1.0 mpk), the “Duration of >50% inhibition … intravenous dosing” value is reported as 120 min. For the same compound, the “Duration of >50% inhibition … oral dosing” value in experiment [3] (3 mpk) is 150 min.

On to `CCN(CC)C(=O)COC(=O)C[C@H](NC(=O)[C@@H]1CCCN(C(=O)CCC2CCNCC2)C1)c1cncc(Br)c1` [Compound 3], for which, in experiment [1], the IC50 is 0.0009 µM and the inhibition at 50 µM turned out to be 100%. For the same compound, in experiment [2], half-maximal inhibition (IC50) required 0.19 µM and the inhibition at 50 µM stood at 100%. Besides, in experiment [3] (3 mpk), the “Duration of >50% inhibition … oral dosing” value was 90 min.

For `CCN(CC)C(=O)COC(=O)[C@H](CNC(=O)[C@@H]1CCCN(C(=O)CCC2CCNCC2)C1)NC(=O)OCc1ccccc1` [Compound 4, N-3-(4-Piperidinepropionyl)-R-(-)nipecotyl-[(S)-2-benzyloxycarbonylamino-3-amino]propionic acid 2-(Diethylamino)-2-oxoethyl ester.HCl], the 50% inhibitory concentration (IC50) in experiment [1] turned out to be 0.002 µM; in experiment [2], 0.29 µM. For the same compound, the inhibition at 50 µM in experiment [1] and in experiment [2] was 100% each time. In addition, in experiment [3] (0.1 mpk), the “Duration of >50% inhibition … intravenous dosing” value turned out to be 60 min. In addition, the “Duration of >50% inhibition … oral dosing” value in experiment [3] (3 mpk) is listed as more than 240 min.

As to `CCN(CC)C(=O)COC(=O)[C@H](CNC(=O)[C@@H]1CCCN(C(=O)/C=C/C2CCNCC2)C1)NC(=O)OCc1ccccc1` [Compound 5, N-3-(4-Piperidinepropenoyl)-R-(-)nipecotyl-[(S)-2-benzyloxycarbonylamino-3-amino]propionic acid 2-(Diethylamino)-2-oxoethyl ester.HCl], in experiment [1], the IC50 stood at 0.0097 µM and the inhibition at 50 µM was 100%. Also, in experiment [2], half-maximal inhibition (IC50) was put at 0.27 µM and the inhibition at 50 µM was determined as 100%. Further, the “Duration of >50% inhibition … intravenous dosing” value in experiment [3] (0.1 mpk) was determined as 60 min. The “Duration of >50% inhibition … oral dosing” value in experiment [3] (1 mpk) is reported as more than 240 min.

In the case of `O=C(N[C@@H](CNC(=O)[C@@H]1CCCN(C(=O)/C=C/C2CCNCC2)C1)C(=O)OCC(=O)N1CCCCC1)OCc1ccccc1` [Compound 6, N-3-(4-Piperidinepropenoyl)-R-(-)nipecotyl-[(S)-2-benzyloxycarbonylamino-3-amino]propionic acid 2-(Piperidino)-2-oxoethyl ester.HCl], in experiment [1], the IC50 was 0.0025 µM and the inhibition at 50 µM is 100%. Further, in experiment [2], half-maximal inhibition (IC50) required 0.51 µM and the inhibition at 50 µM came out at 100%. Besides, the “Duration of >50% inhibition … oral dosing” value in experiment [3] (1 mpk) is 150 min.

For the compound `CN(CC(=O)c1ccc(OCC(=O)O)c(OCC(=O)O)c1)C(=O)c1ccc(C(=N)N)cc1` [Ro-438857], the IC50 in experiment [4] is 0.094 µM.

Turning to `O=C(N[C@@H](CNC(=O)[C@@H]1CCCN(C(=O)CCC2CCNCC2)C1)C(=O)O)OCc1ccccc1` [carboxylic acid congener, reference compound], the “Duration of >50% inhibition … oral dosing” value in experiment [3] (3 mpk) is 180 min.
